Columns and labels:
[1] = target: 5-hydroxytryptamine receptor 4 (Cavia porcellus, UniProt O70528); assay: Ability to block 5-HT4 receptor mediated effect of 5-HT was assessed in the guinea-pig distal colon longitudinal muscle myenteric plexus preparation (LMMP)
[2] = target: Serotonin 4 (5-HT4) receptor (Sus scrofa, UniProt Q6Q253); assay: Compound was evaluated for its ability to inhibit the binding of 5-HT4 receptor radioligand [125I]SB 207710 to piglet hippocampal membrane; assay type: tissue-based, Hippocampus
Sequence of Serotonin 4 (5-HT4) receptor (Q6Q253 whole entry): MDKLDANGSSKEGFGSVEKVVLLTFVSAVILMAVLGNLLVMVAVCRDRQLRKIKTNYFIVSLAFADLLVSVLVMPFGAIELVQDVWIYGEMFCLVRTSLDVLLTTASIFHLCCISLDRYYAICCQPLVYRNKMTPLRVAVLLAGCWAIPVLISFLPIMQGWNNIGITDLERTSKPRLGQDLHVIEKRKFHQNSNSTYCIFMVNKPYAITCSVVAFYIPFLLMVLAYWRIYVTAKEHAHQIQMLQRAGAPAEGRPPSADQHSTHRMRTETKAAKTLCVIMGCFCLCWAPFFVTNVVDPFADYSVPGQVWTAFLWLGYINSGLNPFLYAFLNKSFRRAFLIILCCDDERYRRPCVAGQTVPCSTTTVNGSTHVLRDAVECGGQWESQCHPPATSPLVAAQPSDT

Sequence of 5-hydroxytryptamine receptor 4 (O70528 whole entry): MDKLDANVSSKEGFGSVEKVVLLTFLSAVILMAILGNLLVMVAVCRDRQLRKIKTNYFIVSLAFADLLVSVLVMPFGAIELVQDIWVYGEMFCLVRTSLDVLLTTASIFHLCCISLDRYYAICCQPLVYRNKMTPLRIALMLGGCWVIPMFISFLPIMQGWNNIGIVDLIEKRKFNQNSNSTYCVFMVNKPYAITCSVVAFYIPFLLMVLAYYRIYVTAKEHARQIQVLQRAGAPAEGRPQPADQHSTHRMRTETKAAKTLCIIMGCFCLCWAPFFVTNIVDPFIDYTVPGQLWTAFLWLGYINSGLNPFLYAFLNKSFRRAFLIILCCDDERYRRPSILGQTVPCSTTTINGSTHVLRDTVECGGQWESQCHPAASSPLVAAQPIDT

Row | Structure (SMILES) | IC50 [1] [nM] | Ki [2] [nM]
1 | CCCCN1CCC(COC(=O)c2c[nH]c3ccccc23)CC1 | 0.501 | 2.51
2 | CCCCN1CCC(COC(=O)c2c3n(c4ccccc24)CCCCO3)CC1 | 0.158 | 0.2
3 | CCCCN1CCC(COC(=O)c2c3n(c4ccccc24)CCO3)CC1 | 0.1 | 0.0794
4 | CCCCN1CCC(COC(=O)c2c3n(c4ccccc24)CCCO3)CC1 | 0.0251 | 0.0631
5 | CCCCN1CCC(COC(=O)c2cc(Cl)c(N)c3c2OCCO3)CC1 | 0.0794 | 0.126
